Laboratory results reported in patent US20240117357A1, “REGULATION OF METABOLISM AND OBESITY BY MITOCHONDRIAL MUL1 E3 UBIQUITIN LIGASE” (University of Central Florida Research Foundation, Inc., priority 2022, published 2024).

Tests used:
Format in all cases: cell-based, human
HEK293 Akt2(−/−) cells [1] = assay: Glycolytic Stress Test (ECAR, Seahorse XFe24); details: DMOG 100 μM for 4 hours
Method: (§1) To monitor glycolysis in the cell lines, the Glycolysis Stress Test was performed using a XFe24 Extracellular Flux Analyzer (Agilent Technologies). HEK293 WT, MUL1(−/−) and Akt2(−/−) cells were seeded in triplicates on poly-lysine D-coated XFe24 microplates at a density of 60,000 cells per well in assay medium (XF DMEM pH 7.4 containing 2 mM glutamine and 1 mM sodium pyruvate without glucose) for one hour in a CO2-free incubator. Extracellular acidification rate (ECAR) was measured under basal conditions and again after sequential injections of glucose (10 mM) in port A, ATP synthase inhibitor oligomycin (1.5 μM) in port B, and the glycolysis inhibitor 2-deoxyglucose (2-DG) (300 mM) in port C. Basal glycolysis was assessed by recording three measurements, following the addition of each compound by a 3-2-3 mix/measurement cycle. Glycolysis is the ECAR after the addition of glucose. Glycolytic capacity is the increase in ECAR after the injection of oligomycin following glucose. Glycolytic reserve is the difference between glycolytic capacity and glycolysis. Data analysis was performed using Report Generators software for Glycolysis Stress Test (Agilent Technologies).

HEK293 WT cells = assay: Glycolytic Stress Test (ECAR, Seahorse XFe24); details: DMOG 100 μM for 4 hours
Method: as §1

HEK293 Akt2(−/−) cells [2] = assay: 13C-NMR isotopomer metabolic flux analysis ([U-13C]glucose, tcaCALC)
Method: For NMR analysis, approximately 20×10^6 HEK293 WT, MUL1(−/−), or Akt2(−/−) cells were grown to confluency following treatment with perifosine, or chetomin inhibitors as well as with the HIF-1α activator DMOG and DMSO was used as vehicle control. Freshly prepared [U-^13C]glucose tracer containing medium (glucose free DMEM with 10% dialyzed FBS and 15 mM [U-^13C]glucose) was added to the cells for 6 hours at 37° C. Cells were scraped from the plates, washed twice with cold PBS, and immediately snap frozen in liquid nitrogen (161).
Cell pellets were bead-homogenized in 1 ml acetonitrile:isopropanol:water (3:3:2, v:v:v), centrifuged at 10,000×g for 15 min at 4° C. and the supernatant removed and dried in a speedvac. Dried cell extracts of each sample were re-suspended in 0.5 ml of acetonitrile: water (1:1, v:v) solution, vortexed, and centrifuged for 15 min at 10,000×g at 4° C. The supernatant was transferred to a new tube and dried in a speedvac The dried extract of each cell pellet was re-suspended in phosphate buffer (prepared in Deuterium oxide (D2O)) for NMR analysis. […]
^1H-NMR spectra were collected on an 800 MHz NMR, equipped with a 5 mm TXI CryoProbe and Avance III console (Bruker Biospin), using TopSpin software (version 3.6.3). […] The conventional ^1H-decoupled ^13C-NMR spectra were acquired for each sample at 150.13 MHz, using a ^13C-optimized 1.5 mm high temperature superconducting (HTS) probe on an Agilent NMR system with the magnetic field strength of 14 tesla. ^13C-NMR spectra were recorded using an acquisition time (AQ) of 1.5 sec, relaxation delay (dl) of 1.5 sec, flip angle of 45°, acquired size (TD) of 54 k with the spectral width of 250 ppm (Ramaswamy et al., 2013). […]
The positional ^13C-isotopomer distribution pattern of glutamate was determined by ^13C-NMR. ^13C-NMR resonances of various isotopomers of glutamate are identified from the ^13C-^13C J-coupling constants and quantified by line fitting to the glutamate resonances at C2, C3, C4, and C5 positions. […]

HEK293 MUL1(−/−) cells [3] = assay: Mitochondrial Stress Test (OCR, Seahorse XFe24); details: for oxygen consumption rate (OCR): HEK293 MUL1(−/−) cells, 2.5 μM perifosine or 500 nM chetomin for 4 hours; for mitochondrial respiration: at the concentration used (2.5 μM perifosine, 500 nM chetomin, 4 hours)
Method: Mitochondrial stress assay was performed using an XFe24 Extracellular Flux Analyzer (Agilent Technologies) following the workflow provided by the manufacturer's instructions. Briefly, for Oxygen Consumption Rate (OCR) measurements, HEK293 WT and MUL1(−/−) cells were seeded in triplicates on poly-lysine D-coated XF24 microplates at a density of approximately 60,000 cells per well in assay medium (XF DMEM medium pH 7.4 supplemented with 10 mM glucose, 2 mM glutamine, and 1 mM pyruvate), followed by incubation at 37° C. in CO2-free incubator for 60 minutes. Three baseline measurements were recorded before the injection of the following compounds: 1.5 μM of oligomycin in port A, 1.0 μM of FCCP in port B and 0.5 μM rotenone/antimycin in port C. Data analysis was performed using Cell Mito Stress Test Report Generators software (Agilent Technologies).

HIF-1α = assay: Western blot of HIF-1α target protein GLUT1; details: 500 nM chetomin for 4 hours
Method: (§2) Control (untreated) as well as cells treated with perifosine, chetomin or DMOG were lysed using a Triton X-100 based lysis buffer (1% Triton X-100, 10% glycerol, 150 mM NaCl, 20 mM Tris (pH 7.5), 2 mM EDTA) in the presence of protease inhibitors (Thermo Fisher Scientific). Approximately 40 μg of whole cell extract was resuspended in SDS sample buffer, boiled for 4 minutes, and analyzed by SDS-PAGE (12% or 15% gels), then transferred onto PVDF membranes (Genesee) using a semi-dry cell transfer blot (Bio-Rad). Nonfat dry milk (4%) or 5% BSA (for Akt2 and phospho-specific antibodies) in TBST buffer (25 mM Tris-HCl, pH 8.0, 125 mM NaCl, 0.1% Tween 20) were used to block nonspecific binding of the membrane. The membranes were incubated with the indicated primary antibodies: HIF-1α (Bioss Antibodies, 1:2,000), AKT (pan), Akt1, Akt2, Akt3, phospho-Akt-T308, phospho-GSK-3β-S9, ULK1 (Cell Signaling Technology 1:2,000), GLUT1, (ABclonal 1:2,000), MFN2, and β-actin (Santa Cruz Biotechnology, 1:3,000). MUL1 and UBXN7 rabbit polyclonal antibodies were homegrown and used at 1:5,000 dilution. Secondary peroxidase-conjugated goat anti-rabbit or goat anti-mouse antibodies (Jackson ImmunoResearch) were used at 1:10,000 dilution. The membrane was visualized by enhanced chemiluminescence (ECL) (Thermo Fisher Scientific).

HEK293 MUL1(−/−) cells [4] = assay: Glycolytic Stress Test (ECAR, Seahorse XFe24); details: 2.5 μM perifosine or 500 nM chetomin for 4 hours
Method: as §1

Akt2 = assay: Western blot of Akt2 target P-GSK-3β S9; details: 2.5 μM perifosine for 4 hours
Method: as §2

In the case of `COC(=O)CNC(=O)C(=O)OC` [DMOG, dimethyloxalyglycine], the “glycolysis and glycolytic capacity” value (HEK293 Akt2(−/−) cells [1]) is reported as “small but significant increase”, the “glycolysis and glycolytic capacity” value (HEK293 WT cells) is reported as “unremarkable” and the YPC flux (HEK293 Akt2(−/−) cells [2]; Akt2(−/−)+DMOG cells compared with HEK293 WT and MUL1(−/−) cells) is reported as “elevated above WT, but fell short of reaching MUL1(−/−) levels”. The PK flux (HEK293 Akt2(−/−) cells [2]; Akt2(−/−)+DMOG cells compared with HEK293 WT cells) was “partially restored with DMOG, but did not reach the WT levels” and the “PK, YPC, and YS fluxes” value (HEK293 Akt2(−/−) cells [2]; Akt2(−/−)+DMOG vs Akt2(−/−) cells, relative to citrate synthase flux of 1) was “significantly increased”.

In the case of `CN1C(=O)[C@]2(Cc3cn([C@]45C[C@@]67SS[C@@](CO)(C(=O)N6[C@H]4Nc4ccccc45)N(C)C7=O)c4ccccc34)SS[C@@]1(CO)C(=O)N2C` [chetomin], the “oxygen consumption rate (OCR)” value (HEK293 MUL1(−/−) cells [3]) is reported as “further reduced”, the mitochondrial respiration (HEK293 MUL1(−/−) cells [3]) is reported as “potent inhibitors of mitochondrial respiration” and the “expression of GLUT1” value (HIF-1α) is reported as “significantly reduces”. For the same compound, the “ECAR and glycolysis (glycolytic function)” value (HEK293 MUL1(−/−) cells [4]) was “very potent inhibitor of the mitochondrial glycolytic function”.

With `CCCCCCCCCCCCCCCCCCOP(=O)([O-])OC1CC[N+](C)(C)CC1` [perifosine] the “oxygen consumption rate (OCR)” value (HEK293 MUL1(−/−) cells [3]) was “further reduced”, the mitochondrial respiration (HEK293 MUL1(−/−) cells [3]) was “potent inhibitors of mitochondrial respiration” and the “Akt2 kinase activity (P-GSK-3β S9)” value (Akt2) was “inhibits”. The “ECAR and glycolysis (glycolytic function)” value (HEK293 MUL1(−/−) cells [4]) was “reduced ECAR and glycolysis to a level lower than the one present in HEK293 WT cells”.
